Here are results for 34 molecules from a melting point compilation (Tetko et al.; mined from patent text by program, amines drawn as free bases though some values may be those of a salt).

In the case of `CSc1ccc(C(=O)C=Cc2ccncc2)cc1`, the melting point (as a rule, the temperature, or range, at which the solid turns liquid) lay within 133 to 134 °C.

With `Cc1ccc([C@@H]2c3c(C)c(N4CCC(c5ccc(F)cc5)CC4)c(C)c(C)c3OC2(C)C)cc1`, the melting point fell in the range of 141 to 144 °C. `Fc1ccccc1-c1ccnc2ncnn12`: the melting point lay in the range of 168 to 172 °C. With `CCC(N)=C(C(C)=O)c1[nH]c2ccccc2c1C(O)CN(C)C` (centres undefined) the figure was 90 to 104 °C; with `CCCCNc1ccc2n[nH]c(=O)n2n1`, 259 to 261 °C; with `O=C(O)CN1CCN2c3ccccc3Cc3ccccc3C2C1` (centres undefined), 162 to 163 °C. In the case of `CCc1nc(Cl)cc(NC)n1` it was 80 to 81 °C; in that of `ClCc1ccccc1COc1ccc(C=Cc2ccc3ccccc3n2)cc1`, 127 to 128 °C; in that of `Cc1oc(-c2ccccc2F)nc1CCOc1ccc(CN(O)C(N)=O)cc1`, 151 to 152 °C. In the case of `COc1ccc(CCCNC(=O)c2coc(-c3ccc(/C(=C\CCCCC(=O)O)c4cccnc4)cc3)n2)cc1` it was 49 to 58 °C; in that of `O=c1[nH]c2ncc(-c3ccc(-c4nnc[nH]4)cc3)nc2n1CCN1CCCCC1`, 194 to 197 °C; in that of `COc1cc2c(cc1C(F)(F)F)N(C(=O)Nc1cccc(S(=O)(=O)Nc3cccnc3)c1)CC2`, > 215 °C. In turn, `O=c1[nH]c2c(c3nc(-c4ccccc4)nn13)CN(Cc1ccccc1)CC2` gave a melting point of 257 to 259 °C.

Molecule `CSC(SC)=C(C#N)C(=O)NC1CCCCC1` registered a melting point of 103 to 105 °C. With `Cn1nc(-c2ccc(NN=C(CCC(=O)O)c3ccc(O)cc3O)cc2)ccc1=O` the figure was 138 to 141 °C; with `CCCCCCCCCCOc1cnc(-c2ccc(CCCCCC(C)OC(C)=O)cc2)nc1` (centres undefined), 72 to 73 °C; with `CCCOc1ccccc1-c1nc2nc(OCC)ncc2c(=O)[nH]1`, 196 to 198 °C.

As for `Clc1ccc(-c2nc(COc3ccc(CCCn4ccnc4)cc3)co2)s1`, the melting point was in the range of 77 to 78 °C.

In turn, `Cc1ccc(S(=O)(=O)N2[C@@H](c3nn[nH]n3)CC[C@H]2c2ccc(F)cc2)cc1` (racemic) had a melting point of 150 °C. In the case of `CC(NC(=O)CN1CCCC1=O)C(=O)N1CC(=O)NC1(C)C` (centres undefined) it was 198 to 200 °C; in that of `CCCCc1nc2ccsc2n1Cc1ccc(-c2ccccc2C(=O)O)cc1`, 203 °C. With `OC1CC(CN2CCC(c3ccccc3)CC2)CCc2ccccc21` (centres undefined) the figure was 48 to 50 °C; with `O=[N+]([O-])c1ccc(-c2cnc(Nc3ccc(Oc4ccccc4)cc3)s2)cc1`, 191 to 196 °C; with `COCCN(CCOC)c1ccc(Nn2c(C)ccc2C)nn1`, 112 to 114 °C.

`CC(C)n1c(=O)c2c(-c3cc(C4CC4)on3)ncn2c2ccccc21` registered a melting point of 247 to 249 °C.

Molecule `O=C(OC1CCCCC1)c1ncn2c1[C@@H]1CCN1C(=O)c1cc(F)ccc1-2` registered a melting point of 231 to 232 °C.

For the molecule `O=C(O)/C=C/C=C(c1cccc(F)c1)c1cccc(F)c1`, the melting point fell in the range of 142 to 143 °C. In the case of `COOc1ccc(S(=O)(=O)c2cnc(C)nc2Cc2c(C)cc(C)cc2C)cc1` it was 150 to 152 °C; in that of `COc1ccc(C2=NN(C3CCN(S(=O)(=O)c4ccc(Cl)cc4)CC3)C(=O)CC2)cc1OC`, 185 to 186 °C; in that of `COc1cccc2c1C(=O)c1ccccc1C2(CC(=O)O)CC(=O)O`, 239 to 243 °C. In the case of `NCc1cc(-c2ccnc(Nc3cccc(OC(F)(F)C(F)F)c3)n2)ccn1` it was 64 to 67 °C.

`COCN1C(C)=C(C(=O)OCOC(=O)C(C)(C)C)C(c2ccccc2)C(C(=O)OCOC(=O)C(C)(C)C)=C1C`: the melting point lay within 89 to 90 °C. In the case of `CC(C)(C)OOC(C)(CCC(=O)NNC(=O)c1ccccc1)OOC(C)(C)C`, the melting point is 147 to 149 °C. In the case of `CCOC(=O)c1cn2c3c(c(F)c(F)c(F)c3c1=O)CCN2C` it was 236 to 240 °C.
